Measured values as given in patent US5986131A, “RXR selective ligands” (Hoffmann-La Roche Inc., priority 1997, dated 1999).

What was measured:
RARα = target: T1, RARα (Homo sapiens, UniProt P10276); assay: RARα binding; conditions: Table 2; read-out: RARα binding IC50
T1 sequence (P10276 1-462): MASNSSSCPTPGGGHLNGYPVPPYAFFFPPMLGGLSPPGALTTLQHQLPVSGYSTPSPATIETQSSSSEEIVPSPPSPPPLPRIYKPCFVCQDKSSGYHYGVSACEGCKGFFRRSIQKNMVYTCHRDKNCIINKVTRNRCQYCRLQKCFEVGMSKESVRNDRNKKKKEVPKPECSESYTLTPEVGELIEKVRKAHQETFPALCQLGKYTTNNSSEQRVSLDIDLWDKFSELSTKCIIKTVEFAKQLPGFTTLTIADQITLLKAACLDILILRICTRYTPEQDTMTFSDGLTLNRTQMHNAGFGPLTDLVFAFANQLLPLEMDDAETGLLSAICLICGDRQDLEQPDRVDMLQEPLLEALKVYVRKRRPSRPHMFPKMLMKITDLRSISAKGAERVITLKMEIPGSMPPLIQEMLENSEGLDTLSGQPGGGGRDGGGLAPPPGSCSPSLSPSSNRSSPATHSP
From the text: (§1) Methods essentially as described in those publications were used to determine the binding and transactivation properties of retinoids reported in the Examples herein.

RXRα [1] = target: T2, RXRα (Homo sapiens, UniProt P19793); assay: RXRα activation (transactivation); assay type: cell-based; conditions: Table 1; read-out: Activation ED50, RXRα
T2 sequence (P19793 1-462): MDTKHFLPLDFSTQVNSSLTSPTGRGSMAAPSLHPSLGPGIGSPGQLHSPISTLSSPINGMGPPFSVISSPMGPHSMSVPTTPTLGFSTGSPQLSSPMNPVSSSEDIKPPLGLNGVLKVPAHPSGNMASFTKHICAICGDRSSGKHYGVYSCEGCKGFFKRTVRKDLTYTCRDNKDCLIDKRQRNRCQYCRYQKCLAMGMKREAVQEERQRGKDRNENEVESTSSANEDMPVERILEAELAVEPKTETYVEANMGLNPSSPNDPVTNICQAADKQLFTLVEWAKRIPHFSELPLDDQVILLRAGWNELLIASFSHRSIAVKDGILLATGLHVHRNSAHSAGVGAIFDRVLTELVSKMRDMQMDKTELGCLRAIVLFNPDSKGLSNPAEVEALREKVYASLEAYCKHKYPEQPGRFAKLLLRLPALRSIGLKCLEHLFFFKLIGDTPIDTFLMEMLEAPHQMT
From the text: as §1

[2] = system: Hamster Ear Sebaceous Gland; assay: Effect on size of sebaceous glands of Golden Syrian hamsters; assay type: in vivo; design: Sebaceous Gland Size: unit not given here; conditions: 4 weeks topical dosing
Procedure: Charles River Golden Syrian male hamsters were given the desired dose in acetone. The compounds were stored at 4° C. protected from light. Fresh solutions were made up weekly.
Hamsters were dosed daily for five days, rested for two days, and dosed again for five days until 20 doses were given. The volume of solution was 50 microliters per ear.
Hamsters were sacrificed by CO2 inhalation, and the ears removed for histological evaluation. One ear was removed and the ventral surface separated from the rest of the ear. A 2 mm punch was removed 5 mm from the tip of the ear and stained in 0.1 % Sudan Black B dissolved in 100% propylene glycol overnight. After destaining, the size of sebaceous glands was quantified with a Donsanto Image Analysis System.
Data are given as the average area of 80-120 sebaceous glands per dose, as percent of the control (solvent-treated) sections.

RXRα [3] = target: T2, RXRα; assay: RXRα binding; conditions: Table 2
From the text: as §1

- IC50 (RARα): > 10 µM
- EC50 (RXRα [1]): 0.0017 µM
- IC50 (RXRα [3]): 0.092 µM
SMILES: CC1=C(/C=C/C2=C(/C=C/C(C)=C/C(=O)O)CCCC2)C(C)(C)CCC1 [Example 4, (2E,4E)-3-Methyl-5-(2-((E)-2(2,6,6-trimethyl-1-cyclohexen-1-yl)ethenyl)-1-cyclohexen-1-yl)-2,4-pentadienoic acid]
- Sebaceous Gland Size ([2]; 1 μg/day): 13237 ± 1491
- Sebaceous gland size % Change from Control ([2]; 1 μg/day, ns = not statistically significant): -20%
- Sebaceous Gland Size ([2]; 10 μg/day): 17046 ± 4667
- Sebaceous gland size % Change from Control ([2]; 10 μg/day, ns = not statistically significant): +3%
- Sebaceous Gland Size ([2]; 100 μg/day): 13043 ± 1577
- Sebaceous gland size % Change from Control ([2]; 100 μg/day): -21%
